Measured values published in patent US20200179312A1, “ANALOGUES OF CYSTEAMINE AS THERAPEUTIC AGENTS FOR CYSTIC FIBROSIS” (I.E.R.F.C. EUROPEAN INSTITUTE FOR CYSTIC FIBROSIS RESEARCH, priority 2018, published 2020).

Tests used:
[1] = target: CFTR (Homo sapiens, UniProt P13569, DEL508-508); assay: Immunoblot detection of CFTR in nasal primary cells; format: cell-based; parameters: Freshly isolated brushed nasal epithelial cells were collected by nasal brushing; endogenous in cells; host or cells: primary nasal epithelial cells from F508del-homozygous CF patients
CFTR, sequence (P13569 with tags, fused parts or gaps DEL508-508): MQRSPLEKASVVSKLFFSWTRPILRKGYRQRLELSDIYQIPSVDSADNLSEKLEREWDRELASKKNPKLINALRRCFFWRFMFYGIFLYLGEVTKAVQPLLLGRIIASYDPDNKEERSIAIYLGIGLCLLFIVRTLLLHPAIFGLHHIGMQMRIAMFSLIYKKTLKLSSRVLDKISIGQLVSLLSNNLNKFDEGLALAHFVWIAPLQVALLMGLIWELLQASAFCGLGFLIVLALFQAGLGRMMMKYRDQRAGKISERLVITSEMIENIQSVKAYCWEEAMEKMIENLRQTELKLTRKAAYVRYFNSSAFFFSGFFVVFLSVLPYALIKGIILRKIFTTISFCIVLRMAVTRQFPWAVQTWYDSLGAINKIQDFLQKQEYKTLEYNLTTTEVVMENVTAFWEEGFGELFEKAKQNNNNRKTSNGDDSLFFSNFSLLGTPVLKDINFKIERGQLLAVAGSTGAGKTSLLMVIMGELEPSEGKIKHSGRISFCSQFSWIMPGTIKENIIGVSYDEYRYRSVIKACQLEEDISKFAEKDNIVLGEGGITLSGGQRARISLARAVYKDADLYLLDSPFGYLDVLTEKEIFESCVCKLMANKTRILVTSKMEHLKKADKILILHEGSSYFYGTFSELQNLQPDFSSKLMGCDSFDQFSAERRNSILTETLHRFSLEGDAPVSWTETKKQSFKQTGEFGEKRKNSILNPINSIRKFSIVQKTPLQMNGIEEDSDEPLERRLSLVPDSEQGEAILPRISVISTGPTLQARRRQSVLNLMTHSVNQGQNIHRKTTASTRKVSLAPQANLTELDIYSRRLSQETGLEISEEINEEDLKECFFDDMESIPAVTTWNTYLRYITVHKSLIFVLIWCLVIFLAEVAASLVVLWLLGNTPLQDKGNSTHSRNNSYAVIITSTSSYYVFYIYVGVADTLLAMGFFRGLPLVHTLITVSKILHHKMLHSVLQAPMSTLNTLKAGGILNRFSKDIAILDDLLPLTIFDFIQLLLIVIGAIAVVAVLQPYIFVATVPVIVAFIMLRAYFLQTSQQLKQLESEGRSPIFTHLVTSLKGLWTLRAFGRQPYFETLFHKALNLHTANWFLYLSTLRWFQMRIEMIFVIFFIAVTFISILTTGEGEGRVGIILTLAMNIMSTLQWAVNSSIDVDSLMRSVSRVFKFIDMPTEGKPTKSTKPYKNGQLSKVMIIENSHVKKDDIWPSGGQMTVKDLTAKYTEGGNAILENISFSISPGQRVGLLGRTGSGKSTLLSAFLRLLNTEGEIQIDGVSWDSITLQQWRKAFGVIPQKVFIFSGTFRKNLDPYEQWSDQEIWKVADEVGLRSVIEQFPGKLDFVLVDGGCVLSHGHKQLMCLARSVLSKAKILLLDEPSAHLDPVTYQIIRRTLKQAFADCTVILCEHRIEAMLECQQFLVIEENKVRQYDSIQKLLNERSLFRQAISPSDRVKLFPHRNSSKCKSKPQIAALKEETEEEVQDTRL
Text: Freshly isolated brushed nasal epithelial cells were collected by nasal brushing, as previously described (21, 21) from 10 F508del-CFTR homozygous CF patients and from 5 non-CF healthy volunteers recruited from staff at the same time points. Both patients and healthy volunteers gave written informed consent. […] Brushes with cells were immediately transferred into RPMI 1640 medium (Invitrogen) containing 1% penicillin-streptomycin (Lonza, 17-602E), in 15-ml sterilized tubes. The tubes were incubated at 37° C. for 2 h on a thermo shaker, to remove all cell from brushes; the brushes were then removed and the cells centrifuged at 800×g (2000 rpm) for 20 min. The supernatant fractions were discarded and the cell pellet treated with […] of trypsin-versene (EDTA) solution (Lonza, 17-161) for 4 min at 37° C. to disaggregate possible cell clusters. Trypsin solution was inactivated by adding 3 ml of serum-free Bronchial Epithelial cell Growth Medium BEGM (Clonetics, Lonza, CC3170). After centrifugation at 800×g (2000 rpm) for 10 min, cells were placed in CELLC T 25 flasks (Sarstedt Ltd, CS300) with 10 ml of BEGM medium. Nonspecific epithelial cells were removed during the daily cell washing and medium changes.
The proteins of cell lines lysates or lung or small intestine homogenates, obtained from treated and untreated cells or mice, were quantified by a Bio-Rad protein assay to ensure equal protein loading before immunoblot analysis. Fifty micrograms of proteins were loaded in each lane. Antibodies against SQSTM1, (Sigma Aldrich,P0067) 1:1000, BECN1 (Abcam, ab58878), 1:1000, CFTR clone CF3 (Abcam, ab2784) 1:1000 or anti-CFTR antibody 660 1:1000, Phospho-p44/42 MAPK (Erk1/2) (Thr202/Tyr204) (Cell Signaling Technology, #91101) 1:1000, TG2 (CUB7402, NEOMARKER) 1:1000 were used. Normalization was performed by probing the membrane with anti-β-actin (Cell Signaling, #4970) 1:1000 or anti-α-tubulin (Cell Signaling Technology, 2148) 1:1000.

[2] = test system: TNF alpha, MIP-2; assay: ELISA of inflammatory cytokines in tissues of CftrF508del mice; format: in vivo; conditions: intestinal and lung tissues
Text: (§1) CF mice homozygous for the delF508-CFTR mutation (abbreviated CftrF508del) in the 129/FVB outbred background (CftrtmlEUR, F508del, FVB/129) were obtained from Erasmus Medical Center Rotterdam, The Netherlands (CF coordinated action program EU FP6 LSHM-CT-2005-018932). These studies and procedures were approved by the local Ethics Committee for Animal Welfare (IACUC No 713). Young adult CF mice and their wild-type (wt) littermates were housed in static isolator cages at the animal care specific pathogen-free facility of Charles River (Calco, Italy). CftrF508del mice were treated with daily intraperitoneal injections of cysteamine (100 μl of 0.05 M in PBS) (Sigma Aldrich, M9768) or IE1 (100 μl of 0.075-0.05-0.025-0.0125 M, in PBS) for 5 d or with cysteamine (5 d) or IE1 different concentrations followed by 10 d or 20 d of PBS alone (n=5 mice per group) (19,20).
ELISA. ELISA was performed on tissue samples using standard ELISA kits (R&D Systems) for TNF-α, Mip2a. According to the manufacturer's instructions, samples were read in triplicate at 450 nm in a microplate Reader (Bio-Rad, Milan, Italy) using Microplate Manager 5.2.1 software.
Values were normalized to protein concentration evaluated by Bradford analysis.

[3] = test system: BECN1, (phospho)p42/44 MAPK; assay: Immunoblot of whole homogenates from intestinal and lung tissues of CftrF508del mice; format: in vivo
Text: as §1
The proteins of cell lines lysates or lung or small intestine homogenates, obtained from treated and untreated cells or mice, were quantified by a Bio-Rad protein assay to ensure equal protein loading before immunoblot analysis. Fifty micrograms of proteins were loaded in each lane. […]

Structure (SMILES): NCCCS [IE1, 3-aminopropane-1-thiol]
- PM-resident CFTR protein ([1]; 0.1 μM): a sizeable fraction of the channel resided at the PM
- PM-resident CFTR protein after washout ([1]; 0.1 μM, 24 h of washout): maintained
- PM-resident CFTR protein after washout ([1]; 48 h of washout): decreases
- PM-resident CFTR protein after washout with EGCG added ([1]; 48 h of washout, EGCG added): completely maintained
- MIP-2 [2]: decrease principal inflammatory cytokines
- TNF alpha [2]: decrease principal inflammatory cytokines
- BECN1 in whole homogenates [3]: able to restore BECN1
- Biomarkers (phospho)p42/44 MAPK in whole homogenates [3]: decrease biomarkers (phospho)p42/44 MAPK
